Results from ChEMBL document CHEMBL3763010, “Inhibition of monoamine oxidase by benzoxathiolone analogues” (Bioorg Med Chem Lett, 2016).
pIC50, pKi: −log10 of the molar value.

Key:
Homo sapiens = species: Homo sapiens; assay: Selectivity index, ratio of IC50 for recombinant human MAO-A to recombinant human MAO-B
[1] = target: T1, Amine oxidase [flavin-containing] B (Homo sapiens, UniProt P27338)
T1 sequence (P27338 whole entry): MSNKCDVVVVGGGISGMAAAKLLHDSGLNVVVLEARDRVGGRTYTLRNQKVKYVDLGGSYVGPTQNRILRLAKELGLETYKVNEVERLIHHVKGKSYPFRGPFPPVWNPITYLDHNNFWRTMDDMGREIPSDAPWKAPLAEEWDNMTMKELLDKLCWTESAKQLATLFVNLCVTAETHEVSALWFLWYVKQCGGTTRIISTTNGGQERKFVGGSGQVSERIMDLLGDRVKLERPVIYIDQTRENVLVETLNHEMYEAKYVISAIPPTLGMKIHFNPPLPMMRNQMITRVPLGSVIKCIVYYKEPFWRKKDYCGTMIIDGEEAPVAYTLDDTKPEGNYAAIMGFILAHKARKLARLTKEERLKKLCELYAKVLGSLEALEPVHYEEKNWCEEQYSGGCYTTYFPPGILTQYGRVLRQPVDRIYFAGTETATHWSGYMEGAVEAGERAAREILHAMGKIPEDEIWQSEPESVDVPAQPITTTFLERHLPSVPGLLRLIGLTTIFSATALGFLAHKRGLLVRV
Description: Inhibition of recombinant human MAO-B after 20 mins using 50 uM kynuramine as substrate by fluorescence spectrophotometry

[2] = target: T2, Amine oxidase [flavin-containing] A (Homo sapiens, UniProt P21397)
T2 sequence (P21397 whole entry): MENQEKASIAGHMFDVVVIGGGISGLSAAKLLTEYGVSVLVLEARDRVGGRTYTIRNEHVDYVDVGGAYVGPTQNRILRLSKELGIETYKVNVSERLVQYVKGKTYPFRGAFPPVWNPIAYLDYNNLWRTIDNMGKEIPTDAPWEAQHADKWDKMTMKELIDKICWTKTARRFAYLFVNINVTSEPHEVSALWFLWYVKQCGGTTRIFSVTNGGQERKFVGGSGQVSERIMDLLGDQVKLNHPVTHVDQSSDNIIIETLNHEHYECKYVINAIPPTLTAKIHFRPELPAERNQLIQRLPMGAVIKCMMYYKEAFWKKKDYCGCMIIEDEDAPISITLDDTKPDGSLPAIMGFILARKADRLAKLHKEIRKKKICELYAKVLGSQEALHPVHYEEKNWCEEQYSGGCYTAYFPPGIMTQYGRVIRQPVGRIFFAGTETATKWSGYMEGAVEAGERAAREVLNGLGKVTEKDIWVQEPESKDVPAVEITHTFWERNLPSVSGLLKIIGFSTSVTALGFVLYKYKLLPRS
Description: Inhibition of recombinant human MAO-A after 20 mins using 50 uM kynuramine as substrate by fluorescence spectrophotometry

[3] = Lipophilicity, logP of the compound by shake-flask method; type: physicochemical; settings: octanol/water
[4] = target: T1, Amine oxidase [flavin-containing] B; assay: Inhibition of recombinant human MAO-B pretreated with compound for 15 mins followed by addition of 50 uM kynuramine as substrate by Michaelis-Menten method
[5] = target: T2, Amine oxidase [flavin-containing] A; assay: Inhibition of recombinant human MAO-A activity pretreated with compound for 15 mins followed by addition of 50 uM kynuramine as substrate by Michaelis-Menten method
[6] = target: T1, Amine oxidase [flavin-containing] B; assay: Competition inhibition of recombinant human MAO-B pretreated with compound for 15 mins followed by addition of 50 uM kynuramine as substrate by Lineweaver-Burk plot method
[7] = target: T2, Amine oxidase [flavin-containing] A; assay: Competition inhibition of recombinant human MAO-A pretreated with compound for 15 mins followed by addition of 50 uM kynuramine as substrate by Lineweaver-Burk plot method
[8] = target: T2, Amine oxidase [flavin-containing] A; assay: Reversible inhibition of recombinant human MAO-A assessed as enzyme activity recovered pretreated with compound for 15 mins followed by addition of 50 uM kynuramine as substrate measured after 24 hrs by dialysis; design: scale not given: the % may be the effect or the level left
[9] = target: T1, Amine oxidase [flavin-containing] B; assay: Inhibition of recombinant human MAO-B assessed as enzyme activity pretreated with compound for 15 mins followed by addition of 50 uM kynuramine as substrate measured after 24 hrs; design: scale not given: the % may be the effect or the level left
[10] = target: T2, Amine oxidase [flavin-containing] A; assay: Inhibition of recombinant human MAO-A assessed as enzyme activity pretreated with compound for 15 mins followed by addition of 50 uM kynuramine as substrate measured after 24 hrs; design: scale not given: the % may be the effect or the level left

Row | Structure (SMILES) | Ratio IC50 (Homo sapiens) | pIC50 [1] | pIC50 [2] | logP [3] | pKi [4] | pKi [5] | pKi [6] | pKi [7] | Activity [8] [%] | Activity [9] [%] | Activity [10] [%]
1 | O=c1oc2cc(O)ccc2s1 [TIOXOLONE] | 1 | 5.02 | 5.01 | – | – | – | – | – | – | – | –
2 | O=c1oc2cc(OCc3ccccc3)ccc2s1 | 101 | 7.29 | 5.29 | 3.8 | – | – | – | – | – | – | –
3 | O=c1oc2cc(OCc3ccc(Cl)cc3)ccc2s1 | 63 | 8.52 | 6.72 | 5.61 | 8.41 | 6.25 | 8.46 | 6.44 | 93 | 39 | 73
4 | O=C1OCc2cc(OCc3ccccc3)ccc21 | – | 7.21 | 4.57 | – | – | – | – | – | – | – | –
5 | C#CCN(C)Cc1ccccc1 [PARGYLINE] | – | – | – | – | – | – | – | – | 0.9 | – | –
